Results published in patent publication US7348402B2, “Antimicrobial peptide, its analogs and antimicrobial composition comprising them” (priority 2002, dated 2008).
No end group written: not given here.

Columns and labels:
Type in all cases: cell-based
[1] = tested on: Streptococcus mutans (ATCC 25175); conditions: ATCC 25175, 12 h
Excerpt: (§1) The microorganisms used in the present invention include Gram-positive bacteria such as Bacillus subtilis (ATCC 62037), Staphylococcus aureus (ATCC 15752) and Streptococcus mutans (ATCC 25175), Gram-negative bacteria such as Escherichia coli (ATCC 27325), Salmonella enteritidis (ATCC 15277) and Pseudomonas putida (ATCC 17426) and fungi such as Candida albicans (ATCC 10231), Saccharomyces cerevisiae (ATCC 44774) and Cryptococcus neoformans (ATCC 34881), obtained from American Type Culture Collection (ATCC).
(§2) The antimicrobial activity of the peptides prepared in Example 1 was determined against microorganisms by 96-well microdilution minimal inhibitory concentration assay. After overnight culturing the bacteria and fungi in trypticase soy broth (TSB) and Saboraud (SAB) at 37° C. and 30° C., respectively, they were inoculated in new media and cultured for 2 hours to exponential growth phase. After diluting the microorganisms to 10^5 per 1 ml, 190 μl was inoculated in each 96-well plate, and 10 μl of serially diluted peptides were added in each well.

[2] = tested on: Staphylococcus aureus (ATCC 15752); conditions: ATCC 15752, 12 h
Excerpt: as §1, §2

[3] = tested on: Candida albicans (ATCC 10231); conditions: ATCC 10231, 12 h
Excerpt: as §1, §2

[4] = tested on: Bacillus subtilis (ATCC 62037); conditions: ATCC 62037, 12 h
Excerpt: as §1, §2

[5] = tested on: Salmonella enteritidis (ATCC 15277); conditions: ATCC 15277, 12 h
Excerpt: as §1, §2

[6] = tested on: Pseudomonas putida (ATCC 17426); conditions: ATCC 17426, 12 h
Excerpt: as §1, §2

[7] = tested on: Escherichia coli (ATCC 27325); conditions: ATCC 27325, 12 h
Excerpt: as §1, §2

[8] = tested on: Cryptococcus neoformans (ATCC 34881); conditions: ATCC 34881, 12 h
Excerpt: as §1, §2

[9] = tested on: Saccharomyces cerevisiae (ATCC 44774); conditions: ATCC 44774, 12 h
Excerpt: as §1, §2

Substance | Minimum Inhibitory Concentration [1] [µg/mL] | Minimum Inhibitory Concentration [2] [µg/mL] | Minimum Inhibitory Concentration [3] [µg/mL] | Minimum Inhibitory Concentration [4] [µg/mL] | Minimum Inhibitory Concentration [5] [µg/mL] | Minimum Inhibitory Concentration [6] [µg/mL] | Minimum Inhibitory Concentration [7] [µg/mL] | Minimum Inhibitory Concentration [8] [µg/mL] | Minimum Inhibitory Concentration [9] [µg/mL]
KVVKKVVKKVVKNWPIGKVVK [compound 53] | 1 | 1 | 2 | 1 | 1 | 1 | 1 | 1 | 1
KVVKKVVKKVVKQWPIGKVVK [compound 36] | 2 | 1 | 2 | 1 | 1 | 1 | 2 | 1 | 2
KVVKNWPIGKVVKKVVKKVVK [compound 19] | 1 | 1 | 1 | 2 | 1 | 1 | 2 | 1 | 2
KVVKQWPIGKVVKKVVKKVVK [compound 2] | 2 | 1 | 1 | 1 | 1 | 1 | 1 | 1 | 2
KVVRKVVRKVVRQWPIGKVVR [compound 44] | 2 | 1 | 2 | 2 | 1 | 1 | 1 | 1 | 1
KVVRQWPIGKVVRKVVRKVVR [compound 10] | 2 | 1 | 2 | 1 | 1 | 1 | 1 | 1 | 2
RLLKQWPIGRLLKRLLKRLLK [compound 11] | 2 | 1 | 1 | 1 | 2 | 1 | 1 | 1 | 2
RLLKRLLKRLLKQWPIGRLLK [compound 45] | 1 | 1 | 2 | 1 | 2 | 1 | 1 | 2 | 2
RLLRNWPIGRLLRRLLRRLLR [compound 20] | 2 | 1 | 1 | 2 | 2 | 1 | 1 | 1 | 2
RLLRQWPIGRLLRRLLRRLLR [compound 3] | 1 | 1 | 1 | 2 | 1 | 1 | 2 | 1 | 2
RLLRRLLRRLLRNWPIGRLLR [compound 54] | 2 | 1 | 1 | 1 | 1 | 1 | 2 | 1 | 2
RLLRRLLRRLLRQWPIGRLLR [compound 37] | 1 | 1 | 2 | 1 | 2 | 1 | 1 | 2 | 2
RLVKNWPIGRLVKRLVKRLVK [compound 32] | 2 | 1 | 1 | 1 | 1 | 1 | 1 | 1 | 2
RLVKNWPIGRLVKRLVKRLVK-NH2 [compound 70] | 2 | 1 | 1 | 1 | 1 | 1 | 1 | 1 | 1
RLVKRLVKRLVKNWPIGRLVK [compound 66] | 2 | 1 | 1 | 1 | 1 | 1 | 2 | 1 | 2
RLVRNWPIGRLVRRLVRRLVR [compound 24] | 1 | 1 | 2 | 1 | 2 | 1 | 1 | 1 | 2
RLVRRLVRRLVRNWPIGRLVR [compound 58] | 1 | 1 | 2 | 1 | 1 | 1 | 1 | 1 | 2
RVLKQWPIGRVLKRVLKRVLK [compound 13] | 2 | 1 | 1 | 2 | 1 | 1 | 1 | 1 | 2
RVLKRVLKRVLKNWPIGRVLK-NH2 [compound 72] | 2 | 1 | 1 | 1 | 1 | 1 | 1 | 1 | 2
RVLKRVLKRVLKQWPIGRVLK [compound 47] | 2 | 1 | 1 | 1 | 1 | 1 | 1 | 1 | 2
